# Test results: patent US5206233A, “Substituted thiazepines as central nervous system agents” (Warner-Lambert Company, priority 1991, dated 1993)
# Counter-ions that a name gives are not always drawn.
# Tests used:
# sigma receptor [1] = settings: known antipsychotic agents; literature; cited from earlier work
# sigma receptor [2] = experiment: 3-PPP binding (inhibition of (+)-[3H]-3-PPP, a sigma ligand, binding); settings: inhibition of (+)-[3H]-3-PPP binding, method of Largent et al
# guinea pig ileum = experiment: inhibition of contraction of electrically stimulated guinea pig ileum; settings: Cavia porcellus, read-out: Inhibition of Contraction of Electrical Stimulation Guinea Pig Ileum IC50
# Procedure: (§1) The compounds of Formula I are valuable sigma ligands. […] Additionally, the compounds of Formula I were tested for their ability to inhibit locomotor activity in mice according to the assay described by McLean, J. R., et al, Pharmacology, Biochemistry and Behavior 8:97-99 (1978); for their ability to inhibit contractions of electrically stimulated guinea pig ileum according to the method of Campbell, B. G., et al, Journal of Neuroscience 9 3380-3384 (1989) and Bass, P., et al, Journal of Pharmacology and Experimental Therapeutics 186:183-198 (1973). These tests further support the antipsychotic activity of the compounds of Formula I. The above test methods are incorporated herein by reference. The data in the table show the activity of representative compounds of Formula I.
# [3] = system: locomotor activity in mice; experiment: inhibition of locomotor activity in mice; format: in vivo; settings: Mus musculus, IP
# Procedure: as §1
SMILES,interaction with the sigma receptor (in words) (sigma receptor [1]),IC50 (sigma receptor [2]) [nM],IC50 (guinea pig ileum) [nM],ED50 [3] [mg/kg]
C[C@@H]1CN(CCCn2c3ccccc3c3ccccc32)C[C@H](C)N1 [rimcazole],interact with the sigma receptor,,,
"Cl.c1ccc(C2CCN(CCCCc3ccncc3)CCS2)cc1 (stereo not drawn) [Example 14, Hexahydro-7-(phenyl)-4-[4-(4-pyridinyl)butyl]-1,4-thiazepine, hydrochloride]",,6.39,13100,13.1
"CN1CCSC(c2ccc(Cl)cc2)CC1 (stereo not drawn) [Example 6, Hexahydro-7-(4-chlorophenyl)-4-methyl-1,4-thiazepine, hydrochloride]",,121,,
"COc1ccc(C2CCN(CCCC(=O)c3cccnc3)CCS2)cc1 (stereo not drawn) [Example 13, 1-(3-Pyridinyl)-7-(4-methoxyphenyl)-4-(tetrahydro-1,4-thiazepin-4(2H)-yl)-1-butanone, dihydrochloride]",,9.2,,
"CCCN1CCSC(c2ccc(Cl)cc2)CC1 (stereo not drawn) [Example 10, Hexahydro-7-(4-chlorophenyl)-4-propyl-1,4-thiazepine]",,21.3,,
"COc1ccc(C2CCN(C(C)C)CCS2)cc1 (stereo not drawn) [Example 4, Hexahydro-7-(4-methoxyphenyl)-4-isopropyl-1,4-thiazepine, hydrochloride]",,1.62,,
"Clc1ccc(C2CCN(CCCCc3ccncc3)CCS2)cc1 (stereo not drawn) [Example 16, Hexahydro-7-(4-chlorophenyl)-4-[4-(4-pyridinyl)butyl]-1,4-thiazepine]",,2.62,,19
O=C(CCCN1CCC(O)(c2ccc(Cl)cc2)CC1)c1ccc(F)cc1 [haloperidol],interact with the sigma receptor,,,
CCN1CCC[C@H]1CNC(=O)c1c(OC)ccc(Br)c1OC [remoxapride],interact with the sigma receptor,,,
"c1ccc(C2CCN(CCCCc3cccnc3)CCS2)cc1 (stereo not drawn) [Example 15, Hexahydro-7-(phenyl)-4-[4-(3-pyridinyl)butyl]-1,4-thiazepine]",,2.5,4000,17.9
"COc1ccc(C2CCN(C)CCS2)cc1 (stereo not drawn) [Example 2, Hexahydro-7-(4-methoxyphenyl)-4-methyl-1,4-thiazepine, hydrochloride]",,16.5,,
"COc1ccc(C2CCN(CCCCc3ccncc3)CCS2)cc1 (stereo not drawn) [Example 12, Hexahydro-7-(4-methoxyphenyl)-4-[4-(4-pyridinyl)butyl]-1,4-thiazepine]",,1.32,7300,13.9
"CCN1CCSC(c2ccc(OC)cc2)CC1 (stereo not drawn) [Example 3, Hexahydro-7-(4-methoxyphenyl)-4-ethyl-1,4-thiazepine]",,6.22,,
O=C1CC2(CCCC2)CC(=O)N1CCCCN1CCN(c2nsc3ccccc23)CC1 [tiospirone],interact with the sigma receptor,,,
